# Laboratory results: patent US20100099561A1, “HETEROBICYCLIC ALKYLTHIO-BRIDGED ISOXAZOLINES” (E.I. DU PONT DE NEMOURS AND COMPANY, priority 2008, published 2010)
# Experiments:
# Format in all cases: in vivo
# [1] = tested on: barnyardgrass (Echinochloa crus-galli); experiment: Test A preemergence, barnyardgrass; conditions: 0 to 100 scale (0 no effect, 100 complete control)
# How it was run: (§1)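 Seeds planted in loam–sand blend; compounds in non-phytotoxic solvent with surfactant applied as directed preemergence soil spray, or postemergence to plants 2–10 cm tall at one- to two-leaf stage. After ~10 days in greenhouse, injury rated visually versus untreated controls on 0–100 scale (100 = complete control).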
# [2] = tested on: large crabgrass (Digitaria sanguinalis); experiment: Test A preemergence, large crabgrass; conditions: 0 to 100 scale (0 no effect, 100 complete control)
# How it was run: as §1
# [3] = tested on: giant foxtail (Setaria faberi); experiment: Test A preemergence, giant foxtail; conditions: 0 to 100 scale (0 no effect, 100 complete control)
# How it was run: as §1
# [4] = tested on: morningglory (Ipomoea spp.); experiment: Test A preemergence, morningglory; conditions: 0 to 100 scale (0 no effect, 100 complete control)
# How it was run: as §1
# [5] = tested on: pigweed (Amaranthus retroflexus); experiment: Test A preemergence, pigweed; conditions: 0 to 100 scale (0 no effect, 100 complete control)
# How it was run: as §1
# [6] = tested on: velvetleaf (Abutilon theophrasti); experiment: Test A preemergence, velvetleaf; conditions: 0 to 100 scale (0 no effect, 100 complete control)
# How it was run: as §1
# [7] = tested on: wheat (Triticum aestivum); experiment: Test A preemergence, wheat; conditions: 0 to 100 scale (0 no effect, 100 complete control)
# How it was run: as §1
# corn (Zea mays) [8] = experiment: Test A preemergence, corn; conditions: 0 to 100 scale (0 no effect, 100 complete control)
# How it was run: as §1
# [9] = tested on: barnyardgrass (Echinochloa crus-galli); experiment: Test A postemergence, barnyardgrass; conditions: 0 to 100 scale (0 no effect, 100 complete control)
# How it was run: as §1
# [10] = tested on: large crabgrass (Digitaria sanguinalis); experiment: Test A postemergence, large crabgrass; conditions: 0 to 100 scale (0 no effect, 100 complete control)
# How it was run: as §1
# [11] = tested on: giant foxtail (Setaria faberi); experiment: Test A postemergence, giant foxtail; conditions: 0 to 100 scale (0 no effect, 100 complete control)
# How it was run: as §1
# [12] = tested on: morningglory (Ipomoea spp.); experiment: Test A postemergence, morningglory; conditions: 0 to 100 scale (0 no effect, 100 complete control)
# How it was run: as §1
# [13] = tested on: pigweed (Amaranthus retroflexus); experiment: Test A postemergence, pigweed; conditions: 0 to 100 scale (0 no effect, 100 complete control)
# How it was run: as §1
# [14] = tested on: velvetleaf (Abutilon theophrasti); experiment: Test A postemergence, velvetleaf; conditions: 0 to 100 scale (0 no effect, 100 complete control)
# How it was run: as §1
# [15] = tested on: wheat (Triticum aestivum); experiment: Test A postemergence, wheat; conditions: 0 to 100 scale (0 no effect, 100 complete control)
# How it was run: as §1
# corn (Zea mays) [16] = experiment: Test A postemergence, corn; conditions: 0 to 100 scale (0 no effect, 100 complete control)
# How it was run: as §1
# rice (Oryza sativa) = experiment: Test B flooded paddy test, rice; conditions: Flood, scale 0 to 100
# How it was run: (§2)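 Step one: raise plants to 2 leaves. Step two: flood pots 3 cm over the soil and apply compound into the water, keeping this depth. Step three: after 13–15 greenhouse days, score visually versus controls, 0–100, where 100 means complete control.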
# [17] = tested on: umbrella sedge (Cyperus difformis); experiment: Test B flooded paddy test, umbrella sedge; conditions: Flood, scale 0 to 100
# How it was run: as §2
# [18] = tested on: ducksalad (Heteranthera limosa); experiment: Test B flooded paddy test, ducksalad; conditions: Flood, scale 0 to 100
# How it was run: as §2
# [19] = tested on: barnyardgrass (Echinochloa crus-galli); experiment: Test B flooded paddy test, barnyardgrass; conditions: Flood
# How it was run: as §2
# [20] = 250 g ai/ha, scale 0 to 100 (0 no effect, 100 complete control)
smiles,measurement,setting,value
Cn1c(=O)c(C[S+]([O-])C2=NOC(C)(C)C2)nc2ccccc21 (stereo not shown) [Compound 24],"Plant response rating, Barnyardgrass",[1]; 125 g ai/ha,0
same,"Plant response rating, Barnyardgrass",[1]; 500 g ai/ha,0
same,"Plant response rating, Crabgrass, Large",[2]; 125 g ai/ha,0
same,"Plant response rating, Crabgrass, Large",[2]; 500 g ai/ha,0
same,"Plant response rating, Foxtail, Giant",[3]; 125 g ai/ha,0
same,"Plant response rating, Foxtail, Giant",[3]; 500 g ai/ha,0
same,"Plant response rating, Morningglory",[4]; 125 g ai/ha,0
same,"Plant response rating, Morningglory",[4]; 500 g ai/ha,0
same,"Plant response rating, Pigweed",[5]; 125 g ai/ha,0
same,"Plant response rating, Pigweed",[5]; 500 g ai/ha,0
same,"Plant response rating, Velvetleaf",[6]; 125 g ai/ha,0
same,"Plant response rating, Velvetleaf",[6]; 500 g ai/ha,0
same,"Plant response rating, Wheat",[7]; 125 g ai/ha,0
same,"Plant response rating, Wheat",[7]; 500 g ai/ha,0
same,"Plant response rating, Corn",corn (Zea mays) [8]; 125 g ai/ha,0
same,"Plant response rating, Corn",corn (Zea mays) [8]; 500 g ai/ha,0
same,"Plant response rating, Barnyardgrass",[9]; 125 g ai/ha,0
same,"Plant response rating, Barnyardgrass",[9]; 500 g ai/ha,0
same,"Plant response rating, Crabgrass, Large",[10]; 125 g ai/ha,0
same,"Plant response rating, Crabgrass, Large",[10]; 500 g ai/ha,0
same,"Plant response rating, Foxtail, Giant",[11]; 125 g ai/ha,0
same,"Plant response rating, Foxtail, Giant",[11]; 500 g ai/ha,0
same,"Plant response rating, Morningglory",[12]; 125 g ai/ha,0
same,"Plant response rating, Morningglory",[12]; 500 g ai/ha,0
same,"Plant response rating, Pigweed",[13]; 125 g ai/ha,0
same,"Plant response rating, Pigweed",[13]; 500 g ai/ha,0
same,"Plant response rating, Velvetleaf",[14]; 125 g ai/ha,0
same,"Plant response rating, Velvetleaf",[14]; 500 g ai/ha,0
same,"Plant response rating, Wheat",[15]; 125 g ai/ha,0
same,"Plant response rating, Wheat",[15]; 500 g ai/ha,0
same,"Plant response rating, Corn",corn (Zea mays) [16]; 125 g ai/ha,0
same,"Plant response rating, Corn",corn (Zea mays) [16]; 500 g ai/ha,0
same,"Plant response rating, Rice",rice (Oryza sativa); 62 g ai/ha,30
same,"Plant response rating, Rice",rice (Oryza sativa); 250 g ai/ha,30
same,"Plant response rating, Sedge, Umbrella",[17]; 62 g ai/ha,20
same,"Plant response rating, Sedge, Umbrella",[17]; 250 g ai/ha,30
same,"Plant response rating, Ducksalad",[18]; 62 g ai/ha,0
same,"Plant response rating, Ducksalad",[18]; 250 g ai/ha,30
same,"Plant response rating, Barnyardgrass","[19]; 62 g ai/ha, scale 0 to 100",0
same,"Plant response rating, Barnyardgrass",[19]; [20],0
"CC1(C)CC([S+]([O-])Cc2c(C(F)(F)F)nc3n(c2=O)CCC3)=NO1 (stereo not drawn) [Compound 10, 3-[[(4,5-dihydro-5,5-dimethyl-3-isoxazolyl)sulfinyl]methyl]-7,8-dihydro-2-(trifluoromethyl)pyrrolo[1,2-α]pyrimidin-4(6H)-one]","Plant response rating, Barnyardgrass",[1]; 125 g ai/ha,0
same,"Plant response rating, Barnyardgrass",[1]; 500 g ai/ha,70
same,"Plant response rating, Crabgrass, Large",[2]; 125 g ai/ha,0
same,"Plant response rating, Crabgrass, Large",[2]; 500 g ai/ha,80
same,"Plant response rating, Foxtail, Giant",[3]; 125 g ai/ha,20
same,"Plant response rating, Foxtail, Giant",[3]; 500 g ai/ha,80
same,"Plant response rating, Morningglory",[4]; 125 g ai/ha,0
same,"Plant response rating, Morningglory",[4]; 500 g ai/ha,0
same,"Plant response rating, Pigweed",[5]; 125 g ai/ha,0
same,"Plant response rating, Pigweed",[5]; 500 g ai/ha,0
same,"Plant response rating, Velvetleaf",[6]; 125 g ai/ha,0
same,"Plant response rating, Velvetleaf",[6]; 500 g ai/ha,0
same,"Plant response rating, Wheat",[7]; 125 g ai/ha,0
same,"Plant response rating, Wheat",[7]; 500 g ai/ha,30
same,"Plant response rating, Corn",corn (Zea mays) [8]; 125 g ai/ha,0
same,"Plant response rating, Corn",corn (Zea mays) [8]; 500 g ai/ha,10
same,"Plant response rating, Barnyardgrass",[9]; 125 g ai/ha,30
same,"Plant response rating, Barnyardgrass",[9]; 500 g ai/ha,80
same,"Plant response rating, Crabgrass, Large",[10]; 125 g ai/ha,40
same,"Plant response rating, Crabgrass, Large",[10]; 500 g ai/ha,70
same,"Plant response rating, Foxtail, Giant",[11]; 125 g ai/ha,30
same,"Plant response rating, Foxtail, Giant",[11]; 500 g ai/ha,70
same,"Plant response rating, Morningglory",[12]; 125 g ai/ha,10
same,"Plant response rating, Morningglory",[12]; 500 g ai/ha,20
same,"Plant response rating, Pigweed",[13]; 125 g ai/ha,10
same,"Plant response rating, Pigweed",[13]; 500 g ai/ha,30
same,"Plant response rating, Velvetleaf",[14]; 125 g ai/ha,10
same,"Plant response rating, Velvetleaf",[14]; 500 g ai/ha,40
same,"Plant response rating, Wheat",[15]; 125 g ai/ha,0
same,"Plant response rating, Wheat",[15]; 500 g ai/ha,20
same,"Plant response rating, Corn",corn (Zea mays) [16]; 125 g ai/ha,0
same,"Plant response rating, Corn",corn (Zea mays) [16]; 500 g ai/ha,20
same,"Plant response rating, Rice",rice (Oryza sativa); 31 g ai/ha,0
same,"Plant response rating, Rice",rice (Oryza sativa); 62 g ai/ha,0
same,"Plant response rating, Rice",rice (Oryza sativa); 125 g ai/ha,0
same,"Plant response rating, Rice",rice (Oryza sativa); 250 g ai/ha,0
same,"Plant response rating, Sedge, Umbrella",[17]; 31 g ai/ha,0
same,"Plant response rating, Sedge, Umbrella",[17]; 62 g ai/ha,0
same,"Plant response rating, Sedge, Umbrella",[17]; 125 g ai/ha,0
same,"Plant response rating, Sedge, Umbrella",[17]; 250 g ai/ha,0
same,"Plant response rating, Ducksalad",[18]; 31 g ai/ha,0
same,"Plant response rating, Ducksalad",[18]; 62 g ai/ha,0
same,"Plant response rating, Ducksalad",[18]; 125 g ai/ha,0
same,"Plant response rating, Ducksalad",[18]; 250 g ai/ha,0
same,"Plant response rating, Barnyardgrass","[19]; 31 g ai/ha, scale 0 to 100",0
same,"Plant response rating, Barnyardgrass","[19]; 62 g ai/ha, scale 0 to 100",0
same,"Plant response rating, Barnyardgrass","[19]; 125 g ai/ha, scale 0 to 100",0
same,"Plant response rating, Barnyardgrass",[19]; [20],0
